In brackets after ≈: the same amount, converted by molar mass.
Columns and labels:
[1] = Toxicity against rat WB-F344 cells assessed as cell viability at 0.5 ppm after 1 hr using trypan blue staining by LDH assay; format: cell-based; settings: read-out: Activity
[2] = Toxicity against human erythrocytes at 50 ppm after 60 mins by turbidimetry; format: cell-based; settings: erythrocyte, 1 h
Microsporum canis = test: Antifungal activity against Microsporum canis after 2 to 4 days; format: functional
[3] = Toxicity against rat WB-F344 cells assessed as cell viability at 0.05 ppm after 1 hr using trypan blue staining by LDH assay; format: cell-based; settings: read-out: Activity
[4] = Toxicity against rat WB-F344 cells assessed as cell viability at 50 ppm after 1 hr using trypan blue staining by LDH assay; format: cell-based; settings: read-out: Activity
[5] = Toxicity against rat WB-F344 cells assessed as cell viability at 20 ppm after 1 hr using trypan blue staining by LDH assay; format: cell-based; settings: read-out: Activity
[6] = Toxicity against human erythrocytes at 20 ppm after 60 mins by turbidimetry; format: cell-based; settings: erythrocyte, 1 h
[7] = Toxicity against human erythrocytes at 0.05 ppm after 60 mins by turbidimetry; format: cell-based; settings: erythrocyte, 1 h
[8] = Toxicity against human erythrocytes at 0.5 ppm after 60 mins by turbidimetry; format: cell-based; settings: erythrocyte, 1 h
Candida albicans = test: Antifungal activity against Candida albicans MSU-SM 543 after 2 to 4 days; format: functional
Aspergillus fumigatus = test: Antifungal activity against Aspergillus fumigatus MSU-SM 920 after 2 to 4 days; format: functional
Trichophyton rubrum = test: Antifungal activity against Trichophyton rubrum after 2 to 4 days; format: functional

| Molecule | viability at 1 h, 0.5 ppm [1] | Activity [2] | MIC (Microsporum canis) | viability at 1 h, 0.05 ppm [3] | viability at 1 h, 50 ppm [4] | viability at 1 h, 20 ppm [5] | Activity [6] | Activity [7] | Activity [8] | MIC (Candida albicans) | MIC (Aspergillus fumigatus) | MIC (Trichophyton rubrum) |
| --- | --- | --- | --- | --- | --- | --- | --- | --- | --- | --- | --- | --- |
| C[C@@H]1[C@H](O)[C@@H](C)/C=C/C=C/C=C/C=C/C=C/C=C/C=C/[C@H](O[C@@H]2O[C@H](C)[C@@H](O)[C@H](N)[C@@H]2O)C[C@@H]2O[C@](O)(C[C@@H](O)C[C@@H](O)[C@H](O)CC[C@@H](O)C[C@@H](O)CC(=O)O[C@H]1C)C[C@H](O)[C@H]2C(=O)O [AMPHOTERICIN B] | 100% | Toxic | 16 µg/mL (≈ 17.3 µM) | 100% | 0% | 0% | Toxic | Non-toxic | Non-toxic | 3.2 µg/mL (≈ 3.46 µM) | 80 µg/mL (≈ 86.6 µM) | 16 µg/mL (≈ 17.3 µM) |
| Clc1ccccc1C(c1ccccc1)(c1ccccc1)n1ccnc1 [CLOTRIMAZOLE] |  |  | 16 µg/mL (≈ 46.4 µM) |  |  |  |  |  |  | 1 µg/mL (≈ 2.9 µM) | 1 µg/mL (≈ 2.9 µM) | 80 µg/mL (≈ 232 µM) |
| CC(=O)N1CCN(c2ccc(OCC3COC(Cn4ccnc4)(c4ccc(Cl)cc4Cl)O3)cc2)CC1 (configuration not stated) [KETOCONAZOLE] |  |  | 5.5 µg/mL (≈ 10.3 µM) |  |  |  |  |  |  | 0.5 µg/mL (≈ 0.941 µM) | 1 µg/mL (≈ 1.88 µM) | 5.5 µg/mL (≈ 10.3 µM) |
| Clc1ccc(COC(Cn2ccnc2)c2ccc(Cl)cc2Cl)c(Cl)c1 (configuration not stated) [MICONAZOLE] |  |  | 16 µg/mL (≈ 38.4 µM) |  |  |  |  |  |  | 1 µg/mL (≈ 2.4 µM) | 8 µg/mL (≈ 19.2 µM) | 80 µg/mL (≈ 192 µM) |
| C[C@@H]1C/C=C/C=C/C=C/C=C/[C@H](O[C@@H]2O[C@H](C)[C@@H](O)[C@H](N)[C@@H]2O)C[C@@H]2O[C@](O)(C[C@@H](O)C[C@H]3O[C@@H]3/C=C/C(=O)O1)C[C@H](O)[C@H]2C(=O)O [NATAMYCIN] |  |  | 16 µg/mL (≈ 24 µM) |  |  |  |  |  |  | 5.5 µg/mL (≈ 8.26 µM) | 16 µg/mL (≈ 24 µM) | 16 µg/mL (≈ 24 µM) |
| NYSTATIN |  |  | 100 µg/mL |  |  |  |  |  |  | 3.2 µg/mL | 100 µg/mL | 100 µg/mL |
